Measurements: US20120077685A1, “INTRATUMORAL GENE EXPRESSION LEVELS OF TP AND VEGF ARE ASSOCIATED WITH CLINICAL OUTCOMES IN RECTAL CANCER PATIENTS TREATED WITH 5-FLUOROURACIL AND PELVIC RADIATION” (University of Southern California, priority 2010, published 2012)

Key:
[1] = test system: stage II/III rectal cancer; experiment: Phase III trial (INT-0144, S9304) of 5-FU and radiation: disease-free survival by intratumoral gene expression tertile; type: in vivo, human
Description: Methods: A total of 422 stage II/III rectal patients from a phase III trial (INT-0144, […]) of three regimens of 5-FU and radiation were available for gene expression assays. mRNA was extracted from laser-capturemicrodissected tumor tissue. cDNA was prepared by reverse transcription and quantitation of the candidate genes was performed using a fluorescence-based real-time detection method. The gene expression data were analyzed by splitting the expression data into three (tertiles) groups using 33rd and 66th percentile.

[2] = test system: stage II/III rectal cancer; conditions: neo-adjuvant or adjuvant 5-FU and radiation therapy; cited from earlier work

For `O=c1[nH]cc(F)c(=O)[nH]1` [5-FU, 5-fluorouracil], the “three year DFS” value ([1]; patients with high TP gene expression (tertile)) was 79%, the “three year DFS” value ([1]; patients with high VEGF gene expression (tertile)) was 65% and the “three year DFS” value ([1]; patients with low TP gene expression (tertile)) was 65%. For the same compound, the “three year DFS” value ([1]; patients with low VEGF gene expression (tertile)) was 77%, the “three year DFS” value ([1]; patients with median TP gene expression (tertile)) was 67% and the “three year DFS” value ([1]; patients with median VEGF gene expression (tertile)) was 69%. For the same compound, the “overall 5-year survival rate” value [2] was “approximately 50%”.
